Reference: patent US20170226507A1, “COORDINATE CONTROL OF PATHOGENIC SIGNALING BY THE MIR-130/301 FAMILY IN PULMONARY HYPERTENSION AND FIBROPROLIFERATIVE DISEASES” (The Brigham and Women's Hospital, Inc., priority 2014, published 2017)
“Also recorded” adds a separate entry of the source. One block for each molecule: values may come before it. No end group written: not given here.

Key:
[1] = test system: PASMCs; test: Contraction assay of PASMCs in matrigel; assay type: cell-based, human; conditions: endothelin-1 for 4 days vs vehicle
Protocol: (§1) (FIG. 40A) A schematic diagram of co-culture experiments: conditioned media from transfected PAECs (miRNA, anti-miRNA, tiny-LNA or siRNA under normoxic or hypoxic conditions) were filtered and applied onto naïve PASMCs cultured in matrigel. At specific times, PASMCs or PASMC-matrigel cultures were arrested and analyzed for STAT3 activation (phosphorylation) or contraction, respectively.
(§2) 50000 PASMC were embedded in 100 ul of matrix gel as previous described (Gagiolli et al) and plated into well of a 96 well plate. After 1 h at 37° C., these matrices were overlaid with 100 ul of conditioned PAECs serum-free medium (transfected with siRNA, miRNA or anti-miRNA and supplemented with Ambriesentan 10 uM). Every 12 h, medium was changed and at day 4 the gels were photographed and the relative diameter of the well and the gel were measured using ImageJ. The percentage contraction was calculated using the formula 100*(well diameter−gel diamter)/well diameter. For the co-culture experiment, conditioned media from PAEC transfected as indicated were applied on PASMCs or Fibroblast previously starved (24 h). Cells were collected at different time and analyzed by western blotting.

[2] = test system: STAT3; test: STAT3 phosphorylation in PASMCs (conditioned media from PAECs or endothelin-1; immunoblot); assay type: cell-based, human; conditions: direct exposure to endothelin-1
Protocol: as §1, §2
Cells were lysed in RIPA buffer (Santa Cruz Biotechnology) and the protein concentration determined using a Bradford assay (Biorad). Protein lysate ([…]) were resolved by SDS-PAGE and transferred onto a PVDF membrane (Biorad). Membranes were blocked in 5% non-fat milk in TN buffer (50 mM Tris-HCl pH 7.4, 150 mM NaCl) and incubated in the presence of the primary and then secondary antibodies. After washing in TN buffer containing 0.1% Tween, immunoreactive bands were visualized with the ECL system (Amersham Biosciences). […] Primary antibodies for STAT3 (#9139) and P-STAT3 (Tyr-705; #9145) were purchased from Cell Signaling. Primary antibodies against actin (ab 3280), was obtained from Abcam. Appropriate secondary antibodies (anti-rabbit and anti-mouse) coupled to HRP were used (Santa Cruz Biotechnology).

[3] = test system: liver-X nuclear hormone receptor (LXR); test: Oral LXR agonist GW3965 in bleomycin-exposed mice (lung fibrosis); assay type: in vivo, mouse; conditions: 100 mg/kg/day in chow
Protocol: C57BL/6 mice (7-8 weeks old) were exposed to 0.035 U of bleomycin via oropharyngeal route. In the control group, saline (PBS) was administered via the same route. Mice were euthanized 14 days or 21 days after bleomycin administration. To determine the effects of the LXR agonist GW3965 (Sigma-Aldrich) and consequent APOE induction on lung fibrosis, as previously described^12, mice were exposed to bleomycin (as described above) and simultaneously assigned to control chow or chow supplemented with GW3965 (Research Diets, Inc.) at doses of 100 mg of drug per kilogram of mouse per day (based on average daily intake of […] of chow). After two weeks, harvest of lung tissue was performed for RNA/protein extraction or paraffin embedding. Messenger RNAs were reverse transcribed using the Multiscript RT kit (Life Technologies) to generate cDNA. cDNA was amplified via fluorescently labeled Taqman primer sets using an Applied Biosystems 7900HT Fast Real Time PCR device. […] A primary antibody against YAP1 (#4912; 1/200) was obtained from Cell Signaling. Primary antibodies against, LRP8 (ab115196; 1/100), α-SMA (1/400) were purchased from Abcam. Primary antibodies against PPARγ (sc-7273; 1/50) was purchased from Santa Cruz. Primary antibody against anti-shortmer ([…]-[…]; 1/1000) was provided by Regulus Therapeutics, as previously described^2. […] Pictures were obtained using an Olympus Bx51 microscope. For liver tissue and pulmonary tissue, 10 random 20× fields per animal were analyzed. Intensity of staining was quantified using ImageJ software (NIH). […] Degree of liver fibrosis was assessed in paraffin-embedded liver sections stained for α-SMA by […] score^65. All measurements were performed blinded to condition. […] The sections were then serially imaged using with an analyzer and polarizer oriented parallel and orthogonal to each other. Microscope conditions (lamp brightness, condenser opening, objective, zoom, exposure time, and gain parameters) were constant throughout the imaging of all samples. A minimal threshold was set on appropriate control sections for each experiment in which only the light passing through the orthogonally-oriented polarizers representing fibrous structures (i.e., excluding residual light from the black background) was included. The threshold was maintained for all images across all conditions within each experiment. The area of the transferred regions that was covered by the thresholded light was calculated and at least 10 sections per condition were averaged together (Image J software).

[4] = test system: hypoxia-induced PH in mice; test: Hypoxia-induced PH in mice: BAPN (prevention, rescue) or GW3965 (prevention); assay type: in vivo, mouse
Text: Finally, we wanted to determine if ApoE activity and/or LOX-dependent vascular stiffening were essential for ECM stiffening and PH development by miR-130/301. To assess the importance of ApoE activity, we attempted to prevent PH in mice via treatment with daily dietary ingestion of the liver-X nuclear hormone receptor (LXR) agonist GW3965, a known pharmacologic inducer of ApoE (Pencheva et al., 2014), simultaneously with hypoxia (FIGS. 62A-62H and 68A-H). Alternatively, experiments were designed to either prevent or reverse hypoxia-induced PH in mice via serial treatment with a pharmacologic inhibitor of LOX (Levental et al., 2009), β-aminopropionitrile BAPN, administered either simultaneously with hypoxia exposure (“prevention”) or after disease development (“reversal”) (FIGS. 62A-62H and 68A-H). In all cases of GW3965 or BAPN treatment, collagen crosslinking (FIG. 62D, 62H, FIG. 68) was inhibited, leading to decreased indices of PH, as reflected by RVSP (FIG. 62A, 62E), right ventricular remodeling (RV/LV+S ratio; FIG. 62B, 62F) and pulmonary arteriolar muscularization (FIG. 62C, 62G). GW3965 or BAPN treatment also reversed Pparγ and Lrp8 down-regulation (FIGS. 68A-68H) as well as reduced YAP nuclear localization (FIG. 62D, 62H) and YAP activation, as reflected by decreased Ctgf (FIGS. 68A-68H). Thus, considering the convergent data regarding pharmacologic manipulation of miR-130/301, APOE, and LOX, we can conclude that the YAP-TAZ-miR-130/301 circuit and its downstream network of targets act as master regulators of ECM remodeling in PH and represent a new set of targets for tailored molecular therapy in this disease.
To determine the effects of the LXR agonist GW3965 (Sigma-Aldrich) and consequent APOE induction on PH development, as previously described (Pencheva et al., 2014), mice were exposed to normobaric hypoxia and simultaneously assigned to control chow or chow supplemented with GW3965 (Research Diets, Inc.) at doses of 100 mg of drug per kilogram of mouse per day (based on average daily intake of […] of chow).
Picrosirius Red stain was achieved through the use of 5 μm paraffin sections stained with 0.1% Picrosirius Red (Direct Red80, Sigma-Aldrich) and counterstained with Weigert's hematoxylin to reveal fibrillar collagen. The sections were then serially imaged using with an analyzer and polarizer oriented parallel and orthogonal to each other. Microscope conditions (lamp brightness, condenser opening, objective, zoom, exposure time, and gain parameters) were constant throughout the imaging of all samples. A minimal threshold was set on appropriate control sections for each experiment in which only the light passing through the orthogonally-oriented polarizers representing fibrous structures (i.e., excluding residual light from the black background) was included. The threshold was maintained for all images across all conditions within each experiment. The area of the transferred regions that was covered by the thresholded light was calculated and at least 10 sections/vessel per condition were averaged together (Image J software).
This protocol was adapted from a previously published protocol (Hu et al.). Mouse lung was weighed, minced, and incubated in 0.5 M acetic acid at 4° C. After overnight digestion, the acetic acid-soluble and insoluble fractions were isolated by centrifugation. The soluble fraction was stored at −80° C., while the insoluble fraction was digested by overnight incubation in 6M hydrochloric acid at 85° C. Concentrations of soluble and insoluble (gelatinous) collagen fractions were determined using a Sircol Soluble Collagen Assay Kit (Biocolor) with a colorimetric reaction (measured at 550 nm) and a provided collagen reference standard curve.

[5] = test system: Bleomycin-induced lung fibrosis in mice; test: Bleomycin-induced lung fibrosis in mice; assay type: in vivo, mouse

Molecule: endothelin-1: recombinant human EDN1 applied to PASMCs at 1 nM (CSCSSLMDKECVYFCHLDIIW; ends and bridges not checked; cysteine pairing not given here; UniProt P05305 53-73, looked up)
matrigel contraction of PASMC culture [1]: led to matrigel contraction
matrigel contraction of PASMC culture ([1]; listed as EDN1): increased
STAT3 phosphorylation in PASMCs [2]: time-dependent increase
STAT3 phosphorylation in PASMCs ([2]; listed as EDN1): increased

Pparγ and Lrp8 down-regulation [3]: reversed
YAP activation, Ctgf expression [3]: decreased
YAP nuclear localization [3]: reduced
Molecule: O=C(O)Cc1cccc(OCCCN(Cc2cccc(C(F)(F)F)c2Cl)CC(c2ccccc2)c2ccccc2)c1 [GW3965]
collagen crosslinking ([3]; two weeks): inhibited
indices of lung fibrosis, Ashcroft score ([3]; two weeks): decreased
perivascular collagen crosslinking ([4]; Picrosirius Red): inhibited; also recorded: decreased
Ctgf, collagen isoforms, and Lox in lung ([4]; RT-qPCR): blunted
whole lung collagen content and crosslinked collagen ([4]; Sircol assay): nearly normalized
arteriolar muscularization ([4]; hypoxic mice): decreased; also recorded: prevented
right ventricular hypertrophy (Fulton index, RV/LV+S) ([4]; hypoxic mice): decreased; also recorded: prevented
RVSP ([4]; hypoxic mice, BAPN prevention and rescue, GW3965 100 mg/kg/day in chow, 100 mg/kg/day): decreased; also recorded: prevented
hypoxia mediated decreases of Lrp8 and Pparγ ([4]; in situ staining): reversed; also recorded: prevented
hypoxia-mediated increases of α-SMA and YAP ([4]; in situ staining): reduced; also recorded: blunted
Pparγ and Lrp8 (and Timp2) expression ([5]; IHC / in situ stain): blunted
Ctgf, collagen isoforms and Lox transcripts ([5]; RT-PCR): reduced
collagen deposition and cross-linking ([5]; Short-130 20 mg/kg i.p. or GW3965 100 mg/kg dietary): blunted
lung fibrosis (α-SMA, collagen staining, Ashcroft score) ([5]; Short-130 or GW3965 100 mg/kg dietary): ameliorated
Yap nuclear localization / YAP ([5]; in situ stain): blunted
